Usually IC50 stands for the concentration needed to halve the response being measured.

Each structure is given as a SMILES string.

The source of these data is BindingDB's records for doi:10.1021/jm100886h (University of Copenhagen, 2010).

A short description of this test: Antagonist activity at GluR1 expressed in Xenopus laevis oocytes assessed as inhibition of glutamate-induced current at -60mV holding potential by two-electrode voltage-clamp electrophysiology. For orientation: Two-electrode voltage clamp is typically applied to oocytes expressing channels or transporters.
For `NCCCNCCCCNCCCNC(=O)[C@H](CC1CCCCC1)NC(=O)CC12CC3CC(CC(C3)C1)C2` [(S)-2-(2-Adamantan-1-yl-acetylamino)-N-{3-[4-(3-amino-propylamino)-butylamino]-propyl}-3-cyclohexyl-propionamide], the IC50 stood at 105 nM.

Consider `NCCCNCCCCNCCCNC(=O)[C@H](CC1CCCCC1)NC(=O)Cc1cccc2ccccc12` [(S)-N-(3-(4-(3-aminopropylamino)butylamino)propyl)-3-cyclohexyl-2-(2-(naphthalen-1-yl)acetamido)propanamide], for which the IC50 came out at 41 nM. The figure for `CCCC(=O)N[C@@H](CC1CCCCC1)C(=O)NCCCNCCCCNCCCN` [(S)-N-(1-(3-(4-(3-aminopropylamino)butylamino)propylamino)-3-cyclohexyl-1-oxopropan-2-yl)butyramide] is 32 nM; for `NCCCNCCCCNCCCNC(=O)[C@H](CC1CCCCC1)NC(=O)c1ccc(-c2ccccc2)cc1` [(S)-N-(1-(3-(4-(3-aminopropylamino)butylamino)propylamino)-3-cyclohexyl-1-oxopropan-2-yl)biphenyl-4-carboxamide] it is 87 nM. On to `NCCCNCCCCNCCCNC(=O)[C@H](CC1CCCCC1)NC(=O)C1CCCCC1` [(S)-N-(1-(3-(4-(3-aminopropylamino)butylamino)propylamino)-3-cyclohexyl-1-oxopropan-2-yl)cyclohexanecarboxamide], for which the 50% inhibitory concentration (IC50) turned out to be 21 nM.
